Results from the Kinase Knowledgebase extract (Sharma et al. 2016).

Target: PIK3CD (Human) (UniProt O00329)
Assay: Cell-Free Assay

Sequence of PIK3CD (Human) (O00329 whole entry, looked up): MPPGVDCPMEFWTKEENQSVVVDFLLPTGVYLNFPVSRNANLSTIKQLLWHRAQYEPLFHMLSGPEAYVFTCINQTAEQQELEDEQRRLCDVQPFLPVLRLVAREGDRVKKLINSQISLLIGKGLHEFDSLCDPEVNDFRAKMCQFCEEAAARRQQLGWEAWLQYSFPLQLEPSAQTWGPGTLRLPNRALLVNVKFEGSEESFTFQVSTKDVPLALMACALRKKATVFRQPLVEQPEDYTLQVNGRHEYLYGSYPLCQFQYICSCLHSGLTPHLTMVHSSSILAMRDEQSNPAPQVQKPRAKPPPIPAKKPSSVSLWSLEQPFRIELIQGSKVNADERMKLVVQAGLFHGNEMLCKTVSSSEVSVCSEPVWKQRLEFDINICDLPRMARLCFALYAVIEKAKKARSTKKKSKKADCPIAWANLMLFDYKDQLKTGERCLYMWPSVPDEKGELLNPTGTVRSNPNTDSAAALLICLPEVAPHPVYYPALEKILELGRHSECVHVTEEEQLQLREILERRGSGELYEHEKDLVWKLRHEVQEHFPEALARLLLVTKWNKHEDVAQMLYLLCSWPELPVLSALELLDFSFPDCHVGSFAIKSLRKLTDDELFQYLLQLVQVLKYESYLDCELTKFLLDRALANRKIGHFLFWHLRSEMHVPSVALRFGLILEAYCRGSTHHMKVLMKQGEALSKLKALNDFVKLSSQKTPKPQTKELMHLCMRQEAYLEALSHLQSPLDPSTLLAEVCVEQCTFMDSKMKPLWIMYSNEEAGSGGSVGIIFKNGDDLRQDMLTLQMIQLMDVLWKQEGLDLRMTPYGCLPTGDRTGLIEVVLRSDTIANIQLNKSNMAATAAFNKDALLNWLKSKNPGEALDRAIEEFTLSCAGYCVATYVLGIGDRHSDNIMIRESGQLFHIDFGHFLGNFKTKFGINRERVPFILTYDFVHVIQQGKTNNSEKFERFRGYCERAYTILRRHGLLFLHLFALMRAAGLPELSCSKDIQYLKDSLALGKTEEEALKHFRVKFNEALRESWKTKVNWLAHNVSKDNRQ

IC50 [nM]	Structure (SMILES)
6.2	Cc1ccn2nc([C@H](C)Nc3ncnc4[nH]cc(-c5cc(O)cc(NS(=O)(=O)CCN(C)C)c5)c34)nc(N3C[C@@H](C)N[C@@H](C)C3)c12
2	Cc1ccn2nc([C@H](C)Nc3ncnc4[nH]cc(-c5cnn(C)c5)c34)nc(N3C[C@@H](C)N[C@@H](C)C3)c12
2	Cc1ccn2nc([C@H](C)Nc3ncnc(N)c3C#N)nc(-c3cc(O)cc(C(=O)NC4CC4)c3)c12
1.3	Cc1ccn2nc([C@H](C)Nc3ncnc(N)c3C#N)nc(-c3cc(O)cc(C#N)c3)c12
9.9	Cc1cc(-c2nc([C@H](C)Nc3ncnc(N)c3C#N)nn3ccc(C)c23)n(C)n1
7	COc1ncc(-c2nc([C@H](C)Nc3ncnc(N)c3C#N)nn3ccc(C)c23)cc1NS(C)(=O)=O
1	Cc1ccn2nc([C@H](C)Nc3ncnc(N)c3C#N)nc(-c3cc(O)cc(C(F)(F)F)c3)c12
8.8	Cc1ccn2nc([C@H](Cc3cccc(O)c3)Nc3ncnc(N)c3C#N)nc(N3C[C@@H](C)N[C@@H](C)C3)c12
0.3	Cc1cc(-c2nc([C@H](C)Nc3ncnc(N)c3C#N)nn3ccc(C)c23)cc(C)c1O
1.9	Cc1ccn2nc([C@H](C)Nc3ncnc(N)c3C#N)nc(CCN3CCOCC3)c12
45.4	CC(=O)N1[C@H](C)CN(c2nc([C@H](C)Nc3ncnc(N)c3C#N)nn3ccc(C)c23)C[C@@H]1C
1	Cc1ccn2nc([C@H](C)Nc3ncnc4[nH]cc(C#N)c34)nc(N(CCN(C)C)c3cccc(O)c3)c12
8	Cc1ccn2nc([C@H](C)Nc3ncnc(N)c3C#N)nc(-c3ccc(O)c(C(C)(C)O)c3)c12
0.5	Cc1ccn2nc(Cn3nc(-c4cc(O)cc(NS(C)(=O)=O)c4)c4c(N)ncnc43)nc(N3C[C@@H](C)N[C@@H](C)C3)c12
6.2	Cc1ccn2nc([C@H](C)Nc3ncnc(N)c3C#N)nc(N3CCC(CN4CCCC4)CC3)c12
1	Cc1ccn2nc(Cn3nc(-c4cc(O)cc(F)c4)c4c(N)ncnc43)nc(N3C[C@@H](C)O[C@@H](C)C3)c12
6.1	CNCCNc1nc([C@H](C)Nc2ncnc(N)c2C#N)nn2ccc(C)c12
3.6	Cc1ccn2nc([C@H](C)Nc3ncnc(N)c3C#N)nc(-c3cc(O)cc(C(=O)NCCN(C)C)c3)c12
19	COc1cccc(N(C)c2nc([C@H](C)Nc3ncnc(N)c3C#N)nn3ccc(C)c23)c1
6	Cc1ccn2nc([C@H](C)Nc3ncnc(N)c3C#N)nc(OC3CCN(C(C)C)CC3)c12
2.8	Cc1cc(N(C)C)cc(C2CCN(c3cc(-c4nc([C@H](C)Nc5ncnc(N)c5C#N)nn5ccc(C)c45)ccn3)CC2)n1
10.6	CN[C@H]1CCCC[C@@H]1N(C)c1nc([C@H](C)Nc2ncnc(N)c2C#N)nn2ccc(C)c12
0.4	Cc1cc(C(=O)O)cc(-c2nc([C@H](C)Nc3ncnc(N)c3C#N)nn3ccc(C)c23)c1
0.9	Cc1ccn2nc(Cn3nc(-c4cncc(O)c4)c4c(N)ncnc43)nc(N3C[C@@H](C)N[C@@H](C)C3)c12
62	Cc1ccn2nc([C@H](C)Nc3ncnc(N)c3-c3cc(O)cc(F)c3)nc(OCC3CCOCC3)c12
0.5	Cc1ccn2nc([C@H](C)Nc3ncnc(N)c3C#N)nc(N3C[C@@H](C)N[C@@H](C)C3)c12
6.4	Cc1ccn2nc([C@H](C)Nc3ncnc(N)c3C#N)nc(N(CCN(C)C)Cc3ccc(N4CCC(N(C)C)CC4)cc3)c12
2.9	Cc1ccn2nc([C@H](C)Nc3ncnc(N)c3C#N)nc(N(CCN(C)C)Cc3ccc(N4CCN(C)CC4)cc3)c12
5.9	Cc1ccn2nc([C@H](C)Nc3ncnc(N)c3C#N)nc(-c3ccnc(N4CCC(N(C)C)CC4)c3)c12
0.5	COc1ncc(-c2c[nH]c3ncnc(N[C@@H](C)c4nc(N5C[C@@H](C)O[C@@H](C)C5)c5c(C)ccn5n4)c23)cc1NS(C)(=O)=O

More lines, now with the values behind:

Structure (SMILES)	IC50 [nM]
Cc1ccn2nc(Cn3nc(-c4cc(O)cc(F)c4)c4c(N)ncnc43)nc(N3C[C@@H]4CC[C@H]3CN4S(C)(=O)=O)c12	5.9
Cc1ccn2nc(Cn3nc(-c4cc(O)cc(F)c4)c4c(N)ncnc43)nc(N3C[C@@H]4C[C@H]3CN4)c12	1
Cc1ccn2nc([C@H](C)Nc3ncnc(N)c3C#N)nc(N(CCN3CCOCC3)c3cccc(O)c3)c12	13
Cc1cc(C(=O)NCCCCCN(C)CCO)cc(-c2nc([C@H](C)Nc3ncnc(N)c3C#N)nn3ccc(C)c23)c1	3.1
Cc1ccn2nc(Cn3nc(-c4cc(O)cc(F)c4)c4c(N)ncnc43)nc(N3CCSCC3)c12	2.7
COc1ccc(S(=O)(=O)Nc2cc(-c3nc([C@H](C)Nc4ncnc(N)c4C#N)nn4ccc(C)c34)cnc2O)cc1	10
Cc1ccn2nc(Cn3nc(-c4cc(O)cc(F)c4)c4c(N)ncnc43)nc(OCC3CCOCC3)c12	2
Cc1ccn2nc(Cn3nc(-c4cc(O)cc(F)c4)c4c(N)ncnc43)nc(OCCN3CCOCC3)c12	0.8
Cc1cc(C(=O)NCc2ccc(C(=O)NCCO)cc2)cc(-c2nc([C@H](C)Nc3ncnc(N)c3C#N)nn3ccc(C)c23)c1	2.6
Cc1cc(C(=O)N(C)Cc2cccc(O)c2)cc(-c2nc([C@H](C)Nc3ncnc(N)c3C#N)nn3ccc(C)c23)c1	1.7
Cc1ccn2nc([C@H](C)Nc3ncnc(N)c3C#N)nc(Oc3cccc(NCCN(C)C)c3)c12	10
Cc1cc(C(=O)NCc2ccc(S(N)(=O)=O)cc2)cc(-c2nc([C@H](C)Nc3ncnc(N)c3C#N)nn3cccc23)c1	76.7
Cc1ccn2nc(Cn3nc(-c4cc(O)cc(F)c4)c4c(N)ncnc43)nc(N3CCC(C(N)=O)CC3)c12	2.8
C[C@H](Nc1ncnc(N)c1C#N)c1nc(OCC2CCOCC2)c2c(C#N)ccn2n1	31
Cc1cc(-c2nc([C@H](C)Nc3ncnc(N)c3C#N)nn3cccc23)cc(C)c1C(=O)NCCO	11.4
Cc1ccn2nc(Cn3nc(-c4cc(O)cc(F)c4)c4c(N)ncnc43)nc(N(CCN(C)C)c3cccc(O)c3)c12	0.1
Cc1ccn2nc(Cn3nc(-c4cc(O)cc(F)c4)c4c(N)ncnc43)nc(OCCN3CCC(C(=O)O)CC3)c12	0.6
CCOC(=O)C1CCN(CCOc2nc(Cn3nc(-c4cc(O)cc(F)c4)c4c(N)ncnc43)nn3ccc(C)c23)CC1	1.2
CC(C)Oc1nc([C@H](C)Nc2ncnc(N)c2C#N)nn2cccc12	62
Cc1ccn2nc(Cn3nc(-c4cc(O)cc(F)c4)c4c(N)ncnc43)nc(OC3CCN(C(C)C)CC3)c12	1
Cc1ccn2nc(Cn3nc(-c4cc(O)cc(F)c4)c4c(N)ncnc43)nc(NCCN3CCCC3)c12	1.1
Cc1ccn2nc(Cn3nc(-c4cc(O)cc(F)c4)c4c(N)ncnc43)nc(N3CCS(=O)(=O)CC3)c12	2.5
C[C@H](Nc1ncnc(N)c1C#N)c1nc(OCC2CCNCC2)c2cccn2n1	27
Cc1ccn2nc([C@H](C)Nc3ncnc(N)c3C#N)nc(N[C@@H](Cc3ccc(O)cc3)C(N)=O)c12	14.6
Cc1ccn2nc(Cn3nc(-c4cc(O)cc(F)c4)c4c(N)ncnc43)nc(N3CCCNCC3)c12	6.1
Cc1ccn2nc(Cn3nc(-c4cc(O)cc(F)c4)c4c(N)ncnc43)nc(OCCN3CCCC3=O)c12	2.5
Cc1ccn2nc([C@H](C)Nc3ncnc(N)c3C#N)nc(Oc3cccc(CO)c3)c12	7
C[C@H](Nc1ncnc(N)c1C#N)c1nc(OCC2CCOCC2)c2c(Br)ccn2n1	6
